{"source": "patent US20250073219A1", "about": "“NEW COMPOSITION COMPRISING IMMUNOMODULATORY DRUG” (NANEXA AB, priority 2021, published 2025)", "origin": "cited, not measured here", "details": "oral, about 25 mg once daily, plasma; cited from earlier work", "data": [{"smiles": "Nc1cccc2c1CN(C1CCC(=O)NC1=O)C2=O", "note": "(stereo not drawn) [lenalidomide, 3-(4-amino-1-3-dihydro-l-ovo-2H-isoindol-2yl)-2,6-piperidinedione]", "values": [{"measurement": "Cmax obtained from a dosing regimen comprising orally administering an about 25 mg dose once daily", "result": "about 568 ng/ml"}]}]}
